Earlier results on 3 compounds are cited in patent publication US8759032B2, “Genetically engineered strain WSJ-IA for producing isovaleryl spiramycin I” (Shen Yang Tonglian Group Co., Ltd., priority 2010, dated 2014).

The conditions of the series: single components; no significant differences in their activities; patent application 201010119745.1.

As for `CCC(=O)O[C@@H]1CC(=O)O[C@H](C)C/C=C/C=C/[C@H](O[C@H]2CC[C@H](N(C)C)[C@@H](C)O2)[C@H](C)C[C@H](CC=O)[C@H](O[C@@H]2O[C@H](C)[C@@H](O[C@H]3C[C@@](C)(O)[C@@H](OC(=O)CC(C)C)[C@H](C)O3)[C@H](N(C)C)[C@H]2O)[C@H]1OC` [Isovaleryl spiramycin III], the antibiotic activities entry was “all have antibiotic activities”. As for `CO[C@@H]1[C@@H](O[C@@H]2O[C@H](C)[C@@H](O[C@H]3C[C@@](C)(O)[C@@H](OC(=O)CC(C)C)[C@H](C)O3)[C@H](N(C)C)[C@H]2O)[C@@H](CC=O)C[C@@H](C)[C@@H](O[C@H]2CC[C@H](N(C)C)[C@@H](C)O2)/C=C/C=C/C[C@@H](C)OC(=O)C[C@H]1O` [Isovaleryl spiramycin I], the antibiotic activities result was “all have antibiotic activities”.

Regarding Isovaleryl spiramycin II, the antibiotic activities result is given as “all have antibiotic activities”.
